Experimental data from US11117900B2 (Vertex Pharmaceuticals Incorporated, priority 2012, dated 2021).

Test system: HCT116 colorectal cancer cells
Assay: Cisplatin sensitization assay (96 h MTS cell viability);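 also: compound concentration needed to lower the IC50 of Cisplatin alone by a set fold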
Type: cell-based
Conditions: Cisplatin sensitization value
Summary of the method: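 The MTS viability read, after 1 h with reagent, followed 96 h of co-treatment at 37° C. in 5% CO2. Both compound and cisplatin were titrated 2-fold from a 10 μM top final concentration in a complete concentration matrix on HCT116 cells. Scores +++/++/+ reflect cisplatin sensitization value ranges.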

Row | SMILES | Cisplatin Sensitization Assay
1 | CN1CC2(CCN(c3c(F)cncc3NC(=O)c3c(N)nn4cc(F)cnc34)CC2)OC1=O [I-N-229, 2-amino-6-fluoro-N-(5-fluoro-4-(3-methyl-2-oxo-1-oxa-3,8-diazaspiro[4.5]decan-8-yl)pyridin-3-yl)pyrazolo[1,5-a]pyrimidine-3-carboxamide] | +++ (Compounds with a Cisplatin sensitization value of <0.02 μM are marked with “+++.”)
2 | Nc1nn2cc(F)cnc2c1C(=O)Nc1cncc(F)c1N1CCCC1 [I-N-246, 2-amino-6-fluoro-N-(5-fluoro-4-(pyrrolidin-1-yl)pyridin-3-yl)pyrazolo[1,5-a]pyrimidine-3-carboxamide] | ++ (Compounds with a Cisplatin sensitization value >0.02 μM but <0.2 μM are marked with “++.”)
3 | CN1CCN(c2ccncc2NC(=O)c2c(N)nn3cc(Cl)cnc23)CC1CO (stereo not drawn) [I-N-63, 2-amino-6-chloro-N-(4-(3-(hydroxymethyl)-4-methylpiperazin-1-yl)pyridin-3-yl)pyrazolo[1,5-a]pyrimidine-3-carboxamide] | ++ (Compounds with a Cisplatin sensitization value >0.02 μM but <0.2 μM are marked with “++.”)
4 | CN(C)C1CN(C(=O)C2CCN(c3c(F)cncc3NC(=O)c3c(N)nn4cc(F)cnc34)CC2)C1 [I-G-22, 2-amino-N-(4-(4-(3-(dimethylamino)azetidine-1-carbonyl)piperidin-1-yl)-5-fluoropyridin-3-yl)-6-fluoropyrazolo[1,5-a]pyrimidine-3-carboxamide] | +++ (Compounds with a Cisplatin sensitization value of <0.02 μM are marked with “+++.”)
5 | Nc1nn2cc(F)cnc2c1C(=O)Nc1cncc(F)c1N1CCN(C2CCOCC2)CC1 [I-N-121, 2-amino-6-fluoro-N-(5-fluoro-4-(4-(tetrahydro-2H-pyran-4-yl)piperazin-1-yl)pyridin-3-yl)pyrazolo[1,5-a]pyrimidine-3-carboxamide] | +++ (Compounds with a Cisplatin sensitization value of <0.02 μM are marked with “+++.”)
6 | CN(C)[C@H]1CCN(c2ccncc2NC(=O)c2c(N)nn3cc(Cl)cnc23)C[C@@H]1O [I-N-35, 2-amino-6-chloro-N-(4-((3S,4S)-4-(dimethylamino)-3-hydroxypiperidin-1-yl)pyridin-3-yl)pyrazolo[1,5-a]pyrimidine-3-carboxamide] | + (Compounds with a Cisplatin sensitization value >0.2 μM but <5 μM are marked with “+.”)
7 | Nc1nn2cc(F)cnc2c1C(=O)Nc1cncc(F)c1C1CCN(C2COC2)CC1 [I-C-13, 2-amino-6-fluoro-N-(5-fluoro-4-(1-(oxetan-3-yl)piperidin-4-yl)pyridin-3-yl)pyrazolo[1,5-a]pyrimidine-3-carboxamide] | ++ (Compounds with a Cisplatin sensitization value >0.02 μM but <0.2 μM are marked with “++.”)
8 | CN1CCOC(C(=O)N2CCN(c3c(F)cncc3NC(=O)c3c(N)nn4cc(F)cnc34)CC2)C1 (stereo not drawn) [I-N-174, 2-amino-6-fluoro-N-(5-fluoro-4-(4-(4-methylmorpholine-2-carbonyl)piperazin-1-yl)pyridin-3-yl)pyrazolo[1,5-a]pyrimidine-3-carboxamide] | +++ (Compounds with a Cisplatin sensitization value of <0.02 μM are marked with “+++.”)
9 | Nc1nn2cc(F)cnc2c1C(=O)Nc1cnccc1OC1COC1 [I-O-92, 2-amino-6-fluoro-N-(4-(oxetan-3-yloxy)pyridin-3-yl)pyrazolo[1,5-a]pyrimidine-3-carboxamide] | +++ (Compounds with a Cisplatin sensitization value of <0.02 μM are marked with “+++.”)
10 | Cc1nc(C(=O)N2CCN(C)CC2)ccc1-c1ccncc1NC(=O)c1c(N)nn2cc(F)cnc12 [I-C-39, 2-amino-6-fluoro-N-(2-methyl-6-(4-methylpiperazine-1-carbonyl)-[3,4′-bipyridin]-3′-yl)pyrazolo[1,5-a]pyrimidine-3-carboxamide] | +++ (Compounds with a Cisplatin sensitization value of <0.02 μM are marked with “+++.”)
11 | CC(C)N1CCC(C(=O)N2CCN(c3c(F)cncc3NC(=O)c3c(N)nn4cc(F)cnc34)CC2)C1 (stereo not drawn) [I-N-206, 2-amino-6-fluoro-N-(5-fluoro-4-(4-(1-isopropylpyrrolidine-3-carbonyl)piperazin-1-yl)pyridin-3-yl)pyrazolo[1,5-a]pyrimidine-3-carboxamide] | +++ (Compounds with a Cisplatin sensitization value of <0.02 μM are marked with “+++.”)
12 | CN1CCC(C(=O)N2CCC(c3ccncc3NC(=O)c3c(N)nn4cc(F)cnc34)CC2)CC1 [I-C-16, 2-amino-6-fluoro-N-(4-(1-(1-methylpiperidine-4-carbonyl)piperidin-4-yl)pyridin-3-yl)pyrazolo[1,5-a]pyrimidine-3-carboxamide] | + (Compounds with a Cisplatin sensitization value >0.2 μM but <5 μM are marked with “+.”)
13 | Cc1cncc(NC(=O)c2c(N)nn3cc(Cl)cnc23)c1N1CCN(C)CC1 [I-N-57, 2-amino-6-chloro-N-(5-methyl-4-(4-methylpiperazin-1-yl)pyridin-3-yl)pyrazolo[1,5-a]pyrimidine-3-carboxamide] | +++ (Compounds with a Cisplatin sensitization value of <0.02 μM are marked with “+++.”)
14 | Nc1nn2cc(F)cnc2c1C(=O)Nc1cnccc1N1CCN([C@H]2CCOC2)CC1 [I-N-12, (S)-2-amino-6-fluoro-N-(4-(4-(tetrahydrofuran-3-yl)piperazin-1-yl)pyridin-3-yl)pyrazolo[1,5-a]pyrimidine-3-carboxamide] | +++ (Compounds with a Cisplatin sensitization value of <0.02 μM are marked with “+++.”)
15 | CNC(=O)C1CCN(c2c(F)cncc2NC(=O)c2c(N)nn3cc(F)cnc23)CC1 [I-G-33, 2-amino-6-fluoro-N-(5-fluoro-4-(4-(methylcarbamoyl)piperidin-1-yl)pyridin-3-yl)pyrazolo[1,5-a]pyrimidine-3-carboxamide] | +++ (Compounds with a Cisplatin sensitization value of <0.02 μM are marked with “+++.”)
16 | Nc1nn2cc(Cl)cnc2c1C(=O)Nc1cnccc1N1CCC(N2CCn3cncc3C2)CC1 [I-N-101, 2-amino-6-chloro-N-(4-(4-(5,6-dihydroimidazo[1,5-a]pyrazin-7(8H)-yl)piperidin-1-yl)pyridin-3-yl)pyrazolo[1,5-a]pyrimidine-3-carboxamide] | ++ (Compounds with a Cisplatin sensitization value >0.02 μM but <0.2 μM are marked with “++.”)
17 | CN1CC[C@H](Oc2ccncc2NC(=O)c2c(N)nn3cc(F)cnc23)C1 [I-O-1, (S)-2-amino-6-fluoro-N-(4-((1-methylpyrrolidin-3-yl)oxy)pyridin-3-yl)pyrazolo[1,5-a]pyrimidine-3-carboxamide] | +++ (Compounds with a Cisplatin sensitization value of <0.02 μM are marked with “+++.”)
18 | Nc1nn2cc(F)cnc2c1C(=O)Nc1cncc(Cl)c1N1CCN(C2CCOC2)CC1 (stereo not drawn) [I-N-124, 2-amino-N-(5-chloro-4-(4-(tetrahydrofuran-3-yl)piperazin-1-yl)pyridin-3-yl)-6-fluoropyrazolo[1,5-a]pyrimidine-3-carboxamide] | +++ (Compounds with a Cisplatin sensitization value of <0.02 μM are marked with “+++.”)
